Results reported in ChEMBL document CHEMBL3745645, “Synthesis, in vitro antitumor activity, dihydrofolate reductase inhibition, DNA intercalation and structure-activity relationship studies of 1,3,5-triazine analogues” (Bioorg Med Chem Lett, 2016).
Active and inactive are the calls of the source. The rule behind the calls is not given here.

Assays:
Format in all cases: functional
[1] = Cytotoxicity against human LOXIMVI cells at 10 uM after 48 hrs by SRB assay; conditions: LOX IMVI, read-out: GI
[2] = Cytotoxicity against human UACC62 cells at 10 uM after 48 hrs by SRB assay; conditions: UACC-62, 48 h, read-out: GI
[3] = Cytotoxicity against human HOP92 cells at 10 uM after 48 hrs by SRB assay; conditions: HOP-92, 48 h, read-out: GI
[4] = Cytotoxicity against human UACC257 cells at 10 uM after 48 hrs by SRB assay; conditions: UACC-257, 48 h, read-out: GI
TK-10 = experiment: Cytotoxicity against human TK10 cells at 10 uM after 48 hrs by SRB assay
ACHN = experiment: Cytotoxicity against human ACHN cells at 10 uM after 48 hrs by SRB assay; conditions: read-out: GI
[5] = Cytotoxicity against human MOLT4 cells at 10 uM after 48 hrs by SRB assay; conditions: MOLT-4, 48 h, read-out: GI
SK-MEL-5 = experiment: Cytotoxicity against human SK-MEL-5 cells at 10 uM after 48 hrs by SRB assay; conditions: SK-MEL-5, 48 h, read-out: GI
[6] = Cytotoxicity against human BT549 cells at 10 uM after 48 hrs by SRB assay; conditions: BT-549, 48 h, read-out: GI
[7] = Cytotoxicity against human SW620 cells at 10 uM after 48 hrs by SRB assay; conditions: SW-620, 48 h, read-out: GI
NCI-H226 = experiment: Cytotoxicity against human NCI-H226 cells at 10 uM after 48 hrs by SRB assay; conditions: NCI-H226, 48 h, read-out: GI
MDA-MB-468 = experiment: Cytotoxicity against human MDA-MB-468 cells at 10 uM after 48 hrs by SRB assay; conditions: MDA-MB-468, 48 h, read-out: GI
KM12 = experiment: Cytotoxicity against human KM12 cells at 10 uM after 48 hrs by SRB assay
T47D = experiment: Cytotoxicity against human T47D cells at 10 uM after 48 hrs by SRB assay; conditions: read-out: GI
SR = experiment: Cytotoxicity against human SR cells at 10 uM after 48 hrs by SRB assay; conditions: read-out: GI
786-0 = experiment: Cytotoxicity against human 786-0 cells at 10 uM after 48 hrs by SRB assay; conditions: 786-0, 48 h, read-out: GI
HCC 2998 = experiment: Cytotoxicity against human HCC2998 cells at 10 uM after 48 hrs by SRB assay
[8] = Cytotoxicity against human UO31 cells at 10 uM after 48 hrs by SRB assay; conditions: UO-31, 48 h, read-out: GI
[9] = Cytotoxicity against human OVCAR8 cells at 10 uM after 48 hrs by SRB assay; conditions: OVCAR-8, 48 h, read-out: GI
DU-145 = experiment: Cytotoxicity against human DU145 cells at 10 uM after 48 hrs by SRB assay
[10] = Cytotoxicity against human HCT116 cells at 10 uM after 48 hrs by SRB assay; conditions: HCT-116, 48 h, read-out: GI
[11] = Cytotoxicity against human SNB75 cells at 10 uM after 48 hrs by SRB assay; conditions: SNB-75, 48 h, read-out: GI
[12] = Cytotoxicity against human SF268 cells at 10 uM after 48 hrs by SRB assay; conditions: SF-268, 48 h, read-out: GI
A498 = experiment: Cytotoxicity against human A498 cells at 10 uM after 48 hrs by SRB assay; conditions: A498, 48 h, read-out: GI
[13] = Cytotoxicity against human OVCAR4 cells at 10 uM after 48 hrs by SRB assay; conditions: OVCAR-4, 48 h, read-out: GI
A549 = experiment: Cytotoxicity against human A549 cells at 10 uM after 48 hrs by SRB assay; conditions: A549, 48 h, read-out: GI
SK-MEL-28 = experiment: Cytotoxicity against human SK-MEL-28 cells at 10 uM after 48 hrs by SRB assay
NCI-H460 = experiment: Cytotoxicity against human NCI-H460 cells at 10 uM after 48 hrs by SRB assay
[14] = Cytotoxicity against human NCI-ADR-RES cells at 10 uM after 48 hrs by SRB assay; conditions: read-out: GI
[15] = Cytotoxicity against human SF295 cells at 10 uM after 48 hrs by SRB assay; conditions: SF-295, 48 h, read-out: GI
NCI-H522 = experiment: Cytotoxicity against human NCI-H522 cells at 10 uM after 48 hrs by SRB assay; conditions: NCI-H522, 48 h, read-out: GI
M14 = experiment: Cytotoxicity against human M14 cells at 10 uM after 48 hrs by SRB assay
[16] = Cytotoxicity against human PC3 cells at 10 uM after 48 hrs by SRB assay; conditions: PC-3, 48 h, read-out: GI
MDA-MB-231 = experiment: Cytotoxicity against human MDA-MB-231 cells at 10 uM after 48 hrs by SRB assay; conditions: MDA-MB-231, 48 h, read-out: GI
SK-OV-3 = experiment: Cytotoxicity against human SKOV3 cells at 10 uM after 48 hrs by SRB assay
SN12C = experiment: Cytotoxicity against human SN12C cells at 10 uM after 48 hrs by SRB assay; conditions: read-out: GI
HT-29 = experiment: Cytotoxicity against human HT-29 cells at 10 uM after 48 hrs by SRB assay; conditions: HT-29, 48 h, read-out: GI
[17] = Cytotoxicity against human IGROV1 cells at 10 uM after 48 hrs by SRB assay; conditions: IGROV-1, 48 h, read-out: GI
[18] = Cytotoxicity against human HCT15 cells at 10 uM after 48 hrs by SRB assay; conditions: HCT-15, 48 h, read-out: GI
U-251 = experiment: Cytotoxicity against human U251 cells at 10 uM after 48 hrs by SRB assay
SK-MEL-2 = experiment: Cytotoxicity against human SK-MEL-2 cells at 10 uM after 48 hrs by SRB assay
[19] = Cytotoxicity against human HOP62 cells at 10 uM after 48 hrs by SRB assay; conditions: HOP-62, 48 h, read-out: GI
[20] = Cytotoxicity against human OVCAR3 cells at 10 uM after 48 hrs by SRB assay; conditions: OVCAR-3, 48 h, read-out: GI
MDA-MB-435 = experiment: Cytotoxicity against human MDA-MB-435 cells at 10 uM after 48 hrs by SRB assay; conditions: MDA-MB-435, 48 h, read-out: GI
[21] = Cytotoxicity against human OVCAR5 cells at 10 uM after 48 hrs by SRB assay; conditions: OVCAR-5, 48 h, read-out: GI
[22] = Cytotoxicity against human Hs 578T cells at 10 uM after 48 hrs by SRB assay; conditions: read-out: GI
[23] = Cytotoxicity against human RPMI8226 cells at 10 uM after 48 hrs by SRB assay; conditions: RPMI-8226, 48 h, read-out: GI
Malme-3M = experiment: Cytotoxicity against human MALME-3M cells at 10 uM after 48 hrs by SRB assay
HL-60(TB) = experiment: Cytotoxicity against human HL-60(TB) cells at 10 uM after 48 hrs by SRB assay
RXF 393 = experiment: Cytotoxicity against human RXF393 cells at 10 uM after 48 hrs by SRB assay
[24] = Cytotoxicity against human SF539 cells at 10 uM after 48 hrs by SRB assay; conditions: SF-539, 48 h, read-out: GI
[25] = Cytotoxicity against human Caki1 cells at 10 uM after 48 hrs by SRB assay; conditions: CAKI-1, 48 h, read-out: GI
[26] = Cytotoxicity against human COLO205 cells at 10 uM after 48 hrs by SRB assay; conditions: COLO 205, 48 h, read-out: GI
CCRF-CEM = experiment: Cytotoxicity against human CCRF-CEM cells at 10 uM after 48 hrs by SRB assay; conditions: read-out: GI
[27] = Cytotoxicity against human SNB19 cells at 10 uM after 48 hrs by SRB assay; conditions: SNB-19, 48 h, read-out: GI
MCF7 = experiment: Cytotoxicity against human MCF7 cells at 10 uM after 48 hrs by SRB assay; conditions: MCF7, 48 h, read-out: GI
K562 = experiment: Cytotoxicity against human K562 cells at 10 uM after 48 hrs by SRB assay; conditions: K562, 48 h, read-out: GI

## Cc1nc2cc(Nc3nc(Nc4ccc(F)cc4)nc(Nc4ccc(F)cc4)n3)ccc2n1Cc1ccccc1
[1]
  inhibition of growth at 10 µM: 7.8%
[2]
  inhibition of growth at 10 µM: 10.2%
[3]
  inhibition of growth at 10 µM: 37.6%
[4]
  inhibition of growth at 10 µM: 3.11%
TK-10
  growth inhibition (GI): inactive
ACHN
  inhibition of growth at 10 µM: 7.88%
[5]
  inhibition of growth at 10 µM: 15.2%
SK-MEL-5
  inhibition of growth at 10 µM: 1.09%
[6]
  inhibition of growth at 10 µM: 5.26%
[7]
  inhibition of growth at 10 µM: 3.96%
NCI-H226
  inhibition of growth at 10 µM: 13.8%
MDA-MB-468
  inhibition of growth at 10 µM: 9.45%
KM12
  growth inhibition (GI): inactive
T47D
  inhibition of growth at 10 µM: 10.7%
SR
  inhibition of growth at 10 µM: 18.6%
786-0
  inhibition of growth at 10 µM: 13.2%
HCC 2998
  growth inhibition (GI): inactive
[8]
  inhibition of growth at 10 µM: 39.3%
[9]
  inhibition of growth at 10 µM: 9.21%
DU-145
  growth inhibition (GI): inactive
[10]
  inhibition of growth at 10 µM: 12.2%
[11]
  inhibition of growth at 10 µM: 24.8%
[12]
  inhibition of growth at 10 µM: 3.68%
A498
  inhibition of growth at 10 µM: 21.9%
[13]
  inhibition of growth at 10 µM: 14.4%
A549
  inhibition of growth at 10 µM: 8.48%
SK-MEL-28
  growth inhibition (GI): inactive
NCI-H460
  growth inhibition (GI): inactive
[14]
  inhibition of growth at 10 µM: 10.6%
[15]
  inhibition of growth at 10 µM: 8.21%
NCI-H522
  inhibition of growth at 10 µM: 14.2%
M14
  growth inhibition (GI): inactive
[16]
  inhibition of growth at 10 µM: 23.2%
MDA-MB-231
  inhibition of growth at 10 µM: 24.5%
SK-OV-3
  growth inhibition (GI): inactive
SN12C
  inhibition of growth at 10 µM: 5.75%
HT-29
  inhibition of growth at 10 µM: 1.3%
[17]
  inhibition of growth at 10 µM: 16.9%
[18]
  inhibition of growth at 10 µM: 10.8%
U-251
  growth inhibition (GI): inactive
SK-MEL-2
  growth inhibition (GI): inactive
[19]
  inhibition of growth at 10 µM: 8.91%
[20]
  inhibition of growth at 10 µM: 4.79%
MDA-MB-435
  inhibition of growth at 10 µM: 0.94%
[21]
  inhibition of growth at 10 µM: 4.24%
[22]
  inhibition of growth at 10 µM: 10.4%
[23]
  inhibition of growth at 10 µM: 14.3%
Malme-3M
  growth inhibition (GI): inactive
HL-60(TB)
  growth inhibition (GI): inactive
RXF 393
  growth inhibition (GI): inactive
[24]
  inhibition of growth at 10 µM: 10.4%
[25]
  inhibition of growth at 10 µM: 10.1%
[26]
  inhibition of growth at 10 µM: 2.84%
CCRF-CEM
  inhibition of growth at 10 µM: 10.6%
[27]
  inhibition of growth at 10 µM: 3.99%
MCF7
  inhibition of growth at 10 µM: 11.5%
K562
  inhibition of growth at 10 µM: 18.6%
